The values below come from publication PMC8976068, “Structural basis to repurpose boron-based proteasome inhibitors Bortezomib and Ixazomib as β-lactamase inhibitors” (Scientific Reports, 2022).

Where two headings read alike, the source gives them in different places.

Assay [1] addresses T1, CTX-M-14 β-lactamase (Klebsiella pneumoniae, UniProt A0A2S1JJX2). The assay is described as follows: crystal structure ([…] Å, soaking); also purified enzyme inhibition assay, cefotaxime hydrolysis. It counts as biochemical.
Assay [2] concerns the target T1, CTX-M-14 β-lactamase. The assay is described as above. Format: biochemical. The source holds these as a separate data set.

T1 sequence (A0A2S1JJX2 entry or part of it): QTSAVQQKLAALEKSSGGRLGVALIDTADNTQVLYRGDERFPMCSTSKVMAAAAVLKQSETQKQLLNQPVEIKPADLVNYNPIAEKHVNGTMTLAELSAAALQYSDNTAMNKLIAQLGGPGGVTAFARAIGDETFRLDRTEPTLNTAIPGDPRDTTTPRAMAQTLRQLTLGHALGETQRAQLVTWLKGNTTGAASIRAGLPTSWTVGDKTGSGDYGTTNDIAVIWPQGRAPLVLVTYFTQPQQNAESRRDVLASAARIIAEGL

A word on the IC50: it is the concentration that gives 50% inhibition. Read a low IC50 as greater potency in that assay. On CTX-M-14 β-lactamase [1], `CC(C)C[C@H](NC(=O)[C@H](Cc1ccccc1)NC(=O)c1cnccn1)B(O)O` [Bortezomib] returned a concentration for half-maximal inhibition (IC50) of 67 ± 1.4 µM.
With `CC(C)C[C@H](NC(=O)CNC(=O)c1cc(Cl)ccc1Cl)B(O)O` [Ixazomib], 13 ± 1.2 µM corresponded to half-maximal inhibition on CTX-M-14 β-lactamase [2] (IC50).
